These molecules were tested against T1, recombinant human NAE enzyme (Homo sapiens, UniProt Q8TBC4) (assay: Nedd8-Activating Enzyme (NAE) HTRF Assay). Conditions: threshold statement: less than or equal to 100 nM; 20 μM ATP, 90 minutes at 24° C.
T1 construct: His (N); made in house; host or cells: Sf9 insect cells (baculovirus, Bac-to-Bac), purified on Ni-NTA
T1 sequence (Q8TBC4 1-463): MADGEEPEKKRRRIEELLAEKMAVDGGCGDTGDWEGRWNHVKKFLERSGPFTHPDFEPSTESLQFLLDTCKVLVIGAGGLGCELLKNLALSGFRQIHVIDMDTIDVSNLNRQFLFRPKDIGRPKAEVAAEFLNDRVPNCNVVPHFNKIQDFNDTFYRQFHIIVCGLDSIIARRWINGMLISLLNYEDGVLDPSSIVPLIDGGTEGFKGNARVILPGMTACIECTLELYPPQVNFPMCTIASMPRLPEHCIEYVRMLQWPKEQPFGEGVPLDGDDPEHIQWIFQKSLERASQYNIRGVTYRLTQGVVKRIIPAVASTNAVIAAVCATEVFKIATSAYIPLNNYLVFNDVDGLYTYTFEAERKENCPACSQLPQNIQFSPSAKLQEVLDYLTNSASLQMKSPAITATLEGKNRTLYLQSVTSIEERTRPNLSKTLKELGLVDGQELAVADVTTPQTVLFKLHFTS
T1 sequence (Q13564 1-534 partner): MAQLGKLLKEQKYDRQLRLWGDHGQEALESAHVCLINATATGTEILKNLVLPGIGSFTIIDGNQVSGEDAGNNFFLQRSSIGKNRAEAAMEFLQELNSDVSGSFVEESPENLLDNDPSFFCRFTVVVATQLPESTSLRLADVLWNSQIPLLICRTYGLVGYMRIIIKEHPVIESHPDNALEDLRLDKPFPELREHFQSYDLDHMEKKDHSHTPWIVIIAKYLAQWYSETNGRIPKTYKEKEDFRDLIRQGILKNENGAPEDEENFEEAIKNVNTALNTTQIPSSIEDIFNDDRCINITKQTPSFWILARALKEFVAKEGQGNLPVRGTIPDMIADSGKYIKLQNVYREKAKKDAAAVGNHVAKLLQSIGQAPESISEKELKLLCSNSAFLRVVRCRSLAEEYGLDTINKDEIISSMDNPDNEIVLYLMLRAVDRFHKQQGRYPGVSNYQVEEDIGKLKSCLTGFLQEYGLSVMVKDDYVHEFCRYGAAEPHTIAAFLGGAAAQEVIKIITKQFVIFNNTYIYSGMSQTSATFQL
Assay type: biochemical
Procedure: Following manufacturer instructions, baculoviruses were generated with the Bac-to-Bac Expression System (Invitrogen) for the following proteins: untagged NAEα (APPBP1; NP_003896.1), N-terminally His-tagged NAEβ (UBE1C; NP_003959.3), untagged SAEα (SAE1; NP_005491.1), N-terminally His-tagged SAEβ (UBA2; NP_005490.1), N-terminally His-tagged murine UAE (UBE1X; NP_033483). NAEα/His-NAEβ and SAEα/His-SAEβ complexes were generated by co-infection of Sf9 cells, which were harvested after 48 hours. His-mUAE was generated by single infection of Sf9 cells and harvested after 72 hours. Expressed proteins were purified by affinity chromatography (Ni—NTA agarose, Qiagen) using standard buffers. Ubc12 (UBE2M; NP_003960.1), Ubc9 (UBE2I; NP_003336.1), Ubc2 (UBE2A; NP_003327.2) were subcloned into pGEX (Pharmacia) and expressed as N-terminally GST tagged fusion proteins in E. coli. Expressed proteins were purified by conventional affinity chromatography using standard buffers. Nedd8 (NP_006147), Sumo-1 (NP_003343) and Ubiquitin (with optimized codons) were subcloned into pFLAG-2 (Sigma) and expressed as N-terminally Flag tagged fusion proteins in E. coli. Expressed proteins were purified by conventional chromatography using standard buffers. Nedd8-Activating Enzyme (NAE) HTRF Assay. The NAE enzymatic reaction totaled 50 μL and contained 50 mM HEPES (pH 7.5), 0.05% BSA, 5 mM MgCl2, 20 μM ATP, 250 μM GSH, 0.01 μM Ubc12-GST, 0.075 μM Nedd8-Flag and 0.28 nM recombinant human NAE enzyme. The enzymatic reaction mixture, with and without compound inhibitor, was incubated at 24° C. for 90 minutes in a 384-well plate before termination with 25 μL of Stop/Detection buffer (0.1M HEPES pH 7.5, 0.05% Tween20, 20 mM EDTA, 410 mM KF, 0.53 nM Europium-Cryptate labeled monoclonal anti-FLAG M2 antibody (CisBio International) and 8.125 μg/mL PHYCOLINK goat anti-GST allophycocyanin (XL-APC) antibody (Prozyme)). After incubation for 3 hours at 24° C., quantification of the FRET was performed on the Analyst™ HT 96.384 (Molecular Devices).

IC50, ≤ 100 nM:
NS(=O)(=O)OC[C@@H]1C[C@@H](n2ccc3c(NCc4ccc5c(c4)OCO5)ncnc32)C[C@@H]1O [Compound I-26, ((1S,2S,4R)-4-{4-[(1,3-benzodioxol-5-ylmethyl)amino]-7H-pyrrolo[2,3-d]-pyrimidin-7-yl}-2-hydroxycyclopentyl)methyl sulfamate]
NS(=O)(=O)OC[C@@H]1C[C@@H](n2ccc3c(N[C@H]4CCc5cc(Cl)ccc54)ncnc32)C[C@@H]1O [Compound I-27, [(1S,2S,4R)-4-(4-}[(1S)-5-chloro-2,3-dihydro-1H-inden-1-yl]amino}-7H-pyrrolo-[2,3-d]pyrimidin-7-yl)-2-hydroxycyclopentyl]methyl sulfamate]
NS(=O)(=O)OC[C@@H]1C[C@@H](n2ccc3c(CCc4ccccc4)ncnc32)C[C@@H]1O [Compound I-28, {(1S,2S,4R)-2-hydroxy-4-[4-(2-phenylethyl)-7H-pyrrolo[2,3-d]pyrimidin-7-yl]-cyclopentyl}methyl sulfamate]
NS(=O)(=O)OC[C@@H]1C[C@@H](n2ccc3c(NCC4CCCCC4)ncnc32)C[C@@H]1O [Compound I-29, ((1S,2S,4R)-4-{4-[(cyclohexylmethyl)amino]-7H-pyrrolo[2,3-d]pyrimidin-7-yl)-2-hydroxycyclopentyl)methyl sulfamate]
C[C@]1(O)C[C@H](n2ccc3c(N[C@H]4CCc5ccccc54)ncnc32)C[C@H]1COS(N)(=O)=O [Compound I-30, ((1S,2S,4R)-4-{4-[(1S)-2,3-dihydro-1H-inden-1-ylamino]-7H-pyrrolo[2,3-d]-pyrimidin-7-yl}-2-hydroxy-2-methylcyclopentyl)methyl sulfamate]
NS(=O)(=O)OC[C@@H]1C[C@@H](n2cc(F)c3c(NCc4ccccc4)ncnc32)C[C@@H]1O [Compound I-31, {(1S,2S,4R)-4-[4-(benzylamino)-5-fluoro-7H-pyrrolo[2,3-d]pyrimidin-7-yl]-2-hydroxycyclopentyl}methyl sulfamate]
NS(=O)(=O)OC[C@@H]1C[C@@H](n2ccc3c(N[C@H]4CCc5cc(Br)ccc54)ncnc32)C[C@@H]1O [Compound I-33, [(1S,2S,4R)-4-(4-{[(1S)-5-bromo-2,3-dihydro-1H-inden-1-yl]amino}-7H-pyrrolo-[2,3-d]pyrimidin-7-yl)-2-hydroxycyclopentyl]methyl sulfamate]
NS(=O)(=O)OC[C@@H]1C[C@@H](n2ccc3c(OCc4ccc(Cl)cc4)ncnc32)C[C@@H]1O [Compound I-34, ((1S,2S,4R)-4-{4-[(4-chlorobenzyl)oxy]-7H-pyrrolo[2,3-d]pyrimidin-7-yl}-2-hydroxycyclopentyl)methyl sulfamate]
NS(=O)(=O)OC[C@@H]1C[C@@H](n2ccc3c(N[C@H]4CCc5cc(F)ccc54)ncnc32)C[C@@H]1O [Compound I-36, [(1S,2S,4R)-4-(4-{[(1S)-5-fluoro-2,3-dihydro-1H-inden-1-yl]amino}-7H-pyrrolo-[2,3-d]pyrimidin-7-yl)-2-hydroxycyclopentyl]methyl sulfamate]
NS(=O)(=O)OC[C@@H]1C[C@@H](n2ccc3c(N[C@H]4CCCc5ccccc54)ncnc32)C[C@@H]1O [Compound I-37, ((1S,2S,4R)-2-hydroxy-4-{4-[(1S)-1,2,3,4-tetrahydronaphthalen-1-ylamino]-7H-pyrrolo[2,3-d]pyrimidin-7-yl}cyclopentyl)methyl sulfamate]
NS(=O)(=O)OC[C@@H]1C[C@@H](n2ccc3c(NCc4cccc5ccccc45)ncnc32)C[C@@H]1O [Compound I-38, ((1S,2S,4R)-2-hydroxy-4-{4-[(1-naphthylmethyl)amino]-7H-pyrrolo[2,3-d]-pyrimidin-7-yl}cyclopentyl)methyl sulfamate]
NS(=O)(=O)OC[C@@H]1C[C@@H](n2ccc3c(Nc4ccccc4)ncnc32)C[C@@H]1O [Compound I-39, [(1S,2S,4R)-4-(4-anilino-7H-pyrrolo[2,3-d]pyrimidin-7-yl)-2-hydroxycyclopentyl]methyl sulfamate]
